From patent US9421209B2, “Kinase modulators” (Rhizen Pharmaceuticals SA, priority 2009, dated 2016)

Tests used:
P110 δ/Pi3K δ = P110 δ/Pi3K δ (Homo sapiens, UniProt O00329); experiment: Fluorescent (HTRF) determination of PI3K enzyme activity, δ isoform; assay type: biochemical; design: inhibition: dose or concentration left out as unconfirmed; conditions: for IC50: read-out: P110 δ/ Pi3K δ IC 50 nM
Outline: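 IC50 fitted from percent inhibition relative to blank and enzyme-only wells. Human PI3Kδ converts PIP2 to PIP3 after addition of 400 μM ATP solution, 30 min at room temperature. Product read by time-resolved FRET after stop and 6–18 h dark incubation with detection reagents.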

Chain of P110 δ/Pi3K δ (O00329 whole entry, canonical isoform): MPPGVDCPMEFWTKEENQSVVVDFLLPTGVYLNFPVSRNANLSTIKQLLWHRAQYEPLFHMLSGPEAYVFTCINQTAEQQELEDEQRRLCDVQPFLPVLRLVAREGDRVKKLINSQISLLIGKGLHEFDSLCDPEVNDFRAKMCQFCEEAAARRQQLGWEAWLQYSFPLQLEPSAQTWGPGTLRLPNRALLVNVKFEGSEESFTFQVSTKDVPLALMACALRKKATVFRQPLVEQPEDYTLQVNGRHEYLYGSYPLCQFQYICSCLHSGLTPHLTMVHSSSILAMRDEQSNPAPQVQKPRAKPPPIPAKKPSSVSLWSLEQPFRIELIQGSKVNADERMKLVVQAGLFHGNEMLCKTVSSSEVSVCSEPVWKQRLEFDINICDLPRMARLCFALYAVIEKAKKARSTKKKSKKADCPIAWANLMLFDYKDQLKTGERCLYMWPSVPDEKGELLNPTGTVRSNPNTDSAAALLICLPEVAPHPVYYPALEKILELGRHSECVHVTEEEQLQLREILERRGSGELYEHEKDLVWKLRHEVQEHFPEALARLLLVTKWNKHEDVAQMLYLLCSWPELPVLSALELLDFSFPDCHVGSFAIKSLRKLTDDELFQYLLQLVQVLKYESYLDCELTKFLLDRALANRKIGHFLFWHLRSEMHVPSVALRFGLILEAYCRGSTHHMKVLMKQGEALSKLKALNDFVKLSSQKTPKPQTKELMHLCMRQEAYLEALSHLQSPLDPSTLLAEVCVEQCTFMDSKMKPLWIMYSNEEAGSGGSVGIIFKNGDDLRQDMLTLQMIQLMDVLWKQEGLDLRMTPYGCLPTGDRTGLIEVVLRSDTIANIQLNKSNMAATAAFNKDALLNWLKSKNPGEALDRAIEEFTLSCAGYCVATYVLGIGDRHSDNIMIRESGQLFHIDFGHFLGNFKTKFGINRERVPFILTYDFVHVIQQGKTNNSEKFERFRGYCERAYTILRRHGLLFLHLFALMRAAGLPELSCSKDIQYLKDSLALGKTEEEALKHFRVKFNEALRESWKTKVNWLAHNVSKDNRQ
Chain of P110 δ/Pi3K δ (P27986 whole entry partner, canonical isoform): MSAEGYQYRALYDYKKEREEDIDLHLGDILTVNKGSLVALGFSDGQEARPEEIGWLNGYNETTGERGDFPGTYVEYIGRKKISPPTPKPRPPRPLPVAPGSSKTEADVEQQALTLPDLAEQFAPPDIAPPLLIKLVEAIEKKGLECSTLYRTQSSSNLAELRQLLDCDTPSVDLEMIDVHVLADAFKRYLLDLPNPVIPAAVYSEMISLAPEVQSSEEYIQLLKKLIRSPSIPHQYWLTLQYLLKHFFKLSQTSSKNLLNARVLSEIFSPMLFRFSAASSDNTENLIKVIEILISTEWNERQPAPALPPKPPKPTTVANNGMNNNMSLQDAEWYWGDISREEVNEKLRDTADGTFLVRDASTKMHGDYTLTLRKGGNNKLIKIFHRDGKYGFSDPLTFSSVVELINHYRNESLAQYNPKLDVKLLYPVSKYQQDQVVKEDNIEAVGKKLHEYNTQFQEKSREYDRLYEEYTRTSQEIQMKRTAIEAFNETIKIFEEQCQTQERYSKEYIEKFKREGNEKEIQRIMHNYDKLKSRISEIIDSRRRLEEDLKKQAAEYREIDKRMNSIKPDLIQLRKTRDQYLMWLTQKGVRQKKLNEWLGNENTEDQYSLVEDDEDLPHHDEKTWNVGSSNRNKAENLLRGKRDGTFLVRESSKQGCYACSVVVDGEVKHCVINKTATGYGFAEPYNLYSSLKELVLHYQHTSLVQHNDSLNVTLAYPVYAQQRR

**Q.** Which inhibition (P110 δ/Pi3K δ) does the source give for `CC(c1oc2ccccc2c(=O)c1-c1cccc(F)c1)n1nc(-c2ccc3cc[nH]c3c2)c2c(N)ncnc21` (stereo not shown) [Example 94, 2-(1-(4-amino-3-(1H-indol-6-yl)-1H-pyrazolo[3,4-d]pyrimidin-1-yl)ethyl)-3-(3-fluorophenyl)-4H-chromen-4-one] here?
**A.** 50 to 100%

**Q.** And the melting point?
**A.** 222 to 225 °C

**Q.** Which inhibition (P110 δ/Pi3K δ) does the source give for `CC(c1oc2ccccc2c(=O)c1-c1cccc(F)c1)n1nc(-c2ccc(Cl)c(O)c2)c2c(N)ncnc21` (stereo not shown) [Example 95a, 2-(1-(4-amino-3-(4-chloro-3-hydroxyphenyl)-1H-pyrazolo[3,4-d]pyrimidin-1-yl)ethyl)-3-(3-fluorophenyl)-4H-chromen-4-one] here?
**A.** 50 to 100%

**Q.** And the IC50 (P110 δ/Pi3K δ)?
**A.** < 250 nM

**Q.** And the melting point?
**A.** 134 to 136 °C

**Q.** Which inhibition (P110 δ/Pi3K δ) does the source give for `CC(c1oc2ccccc2c(=O)c1-c1cccc(F)c1)n1nc(-c2cc(O)ccc2Cl)c2c(N)ncnc21` (stereo not shown) [Example 96a, 2-(1-(4-amino-3-(2-chloro-5-hydroxyphenyl)-1H-pyrazolo[3,4-d]pyrimidin-1-yl)ethyl)-3-(3-fluorophenyl)-4H-chromen-4-one] here?
**A.** 50 to 100%

**Q.** And the melting point?
**A.** 192 to 195 °C

**Q.** With `COc1ccc(-c2nn(C(C)c3oc4ccccc4c(=O)c3-c3cccc(F)c3)c3ncnc(N)c23)cc1OC` (stereo not shown) [Example 97, 2-(1-(4-amino-3-(3,4-dimethoxyphenyl)-1H-pyrazolo[3,4-d]pyrimidin-1-yl)ethyl)-3-(3-fluorophenyl)-4H-chromen-4-one] as the compound, how does the inhibition (P110 δ/Pi3K δ) read?
**A.** 50 to 100%

**Q.** And the melting point?
**A.** 232 to 235 °C

**Q.** Which inhibition (P110 δ/Pi3K δ) does the source give for `CC(c1oc2ccccc2c(=O)c1-c1cccc(F)c1)n1nc(-c2ccc(O)c(O)c2)c2c(N)ncnc21` (stereo not shown) [Example 98, 2-(1-(4-amino-3-(3,4-dihydroxyphenyl)-1H-pyrazolo[3,4-d]pyrimidin-1-yl)ethyl)-3-(3-fluorophenyl)-4H-chromen-4-one] here?
**A.** 50 to 100%

**Q.** And the IC50 (P110 δ/Pi3K δ)?
**A.** < 250 nM

**Q.** And the melting point?
**A.** 193 to 195 °C

**Q.** With `Cc1n[nH]c2cc(-c3nn(Cc4oc5ccccc5c(=O)c4-c4cccc(F)c4)c4ncnc(N)c34)ccc12` [Example 99, 2-((4-amino-3-(3-methyl-1H-indazol-6-yl)-1H-pyrazolo[3,4-d]pyrimidin-1-yl)methyl)-3-(3-fluorophenyl)-4H-chromen-4-one] as the compound, how does the inhibition (P110 δ/Pi3K δ) read?
**A.** 50 to 100%

**Q.** What about the melting point of the same compound?
**A.** 246 to 248 °C

**Q.** With `CC(c1oc2ccccc2c(=O)c1-c1cccc(F)c1)n1nc(-c2ccc3[nH]ccc3c2)c2c(N)ncnc21` (stereo not shown) [Example 100, 2-(1-(4-amino-3-(1H-indol-5-yl)-1H-pyrazolo[3,4-d]pyrimidin-1-yl)ethyl)-3-(3-fluorophenyl)-4H-chromen-4-one] as the compound, how does the inhibition (P110 δ/Pi3K δ) read?
**A.** 50 to 100%

**Q.** And the melting point?
**A.** 197 to 199 °C

**Q.** For `Cc1c[nH]c2ccc(-c3nn(C(C)c4oc5ccccc5c(=O)c4-c4cccc(F)c4)c4ncnc(N)c34)cc12` (stereo not shown) [Example 101, 2-(1-(4-Amino-3-(3-methyl-1H-indol-5-yl)-1H-pyrazolo[3,4-d]pyrimidin-1-yl)ethyl)-3-(3-fluorophenyl)-4H-chromen-4-one], which inhibition (P110 δ/Pi3K δ) is on record?
**A.** < 50%

**Q.** And the melting point?
**A.** 171 to 173 °C

**Q.** Which results are given for `CC(c1oc2ccccc2c(=O)c1-c1cccc(F)c1)n1nc(-c2ccc(CN)s2)c2c(N)ncnc21` (stereo not shown) [Example 102a, 2-(1-(4-amino-3-(5-(aminomethyl)thiophen-2-yl)-1H-pyrazolo[3,4-d]pyrimidin-1-yl)ethyl)-3-(3-fluorophenyl)-4H-chromen-4-one]?
**A.** inhibition (P110 δ/Pi3K δ): < 50%; melting point: 275 to 278 °C

**Q.** Which inhibition (P110 δ/Pi3K δ) does the source give for `Cc1n[nH]c2cc(-c3nn(Cc4oc5ccc(F)cc5c(=O)c4-c4ccccc4)c4ncnc(N)c34)ccc12` [Example 103, 2-((4-amino-3-(3-methyl-1H-indazol-6-yl)-1H-pyrazolo[3,4-d]pyrimidin-1-yl)methyl)-6-fluoro-3-phenyl-4H-chromen-4-one] here?
**A.** 50 to 100%

**Q.** What about the IC50 (P110 δ/Pi3K δ) of the same compound?
**A.** < 250 nM

**Q.** What about the melting point of the same compound?
**A.** 277 to 279 °C

**Q.** With `Cc1n[nH]c2cc(-c3nn(C(C)c4oc5ccccc5c(=O)c4-c4ccccc4)c4ncnc(N)c34)ccc12` (stereo not shown) [Example 104, 2-(1-(4-amino-3-(3-methyl-1H-indazol-6-yl)-1H-pyrazolo[3,4-d]pyrimidin-1-yl)ethyl)-3-phenyl-4H-chromen-4-one] as the compound, how does the inhibition (P110 δ/Pi3K δ) read?
**A.** 50 to 100%

**Q.** And the IC50 (P110 δ/Pi3K δ)?
**A.** < 250 nM

**Q.** What about the melting point of the same compound?
**A.** 249 to 252 °C

**Q.** With `CC(c1oc2ccccc2c(=O)c1-c1cccc(F)c1)n1nc(-c2ccc(N)cc2)c2c(N)ncnc21` (stereo not shown) [Example 107a, 2-(1-(4-amino-3-(4-aminophenyl)-1H-pyrazolo[3,4-d]pyrimidin-1-yl)ethyl)-3-(3-fluorophenyl)-4H-chromen-4-one] as the compound, how does the inhibition (P110 δ/Pi3K δ) read?
**A.** < 50%

**Q.** What about the melting point of the same compound?
**A.** 91 to 94 °C

**Q.** Which results are given for `Nc1ncnc2c1c(-c1cc(O)cc(F)c1)nn2Cc1oc2ccc(F)cc2c(=O)c1-c1cccc(F)c1` [Example 120a, 2-((4-amino-3-(3-fluoro-5-hydroxyphenyl)-1H-pyrazolo[3,4-d]pyrimidin-1-yl)methyl)-6-fluoro-3-(3-fluorophenyl)-4H-chromen-4-one]?
**A.** inhibition (P110 δ/Pi3K δ): 50 to 100%; melting point: 127 to 129 °C

**Q.** For `CC(c1oc2ccc(F)cc2c(=O)c1-c1cccc(F)c1)n1nc(-c2cccc(O)c2)c2c(N)ncnc21` (stereo not shown) [Example 121a, 2-(1-(4-amino-3-(3-hydroxyphenyl)-1H-pyrazolo[3,4-d]pyrimidin-1-yl)ethyl)-6-fluoro-3-(3-fluorophenyl)-4H-chromen-4-one], which inhibition (P110 δ/Pi3K δ) is on record?
**A.** 50 to 100%

**Q.** What about the melting point of the same compound?
**A.** 193 to 196 °C

**Q.** What does the source list for `Nc1ncnc2c1c(-c1cc(F)c(O)c(F)c1)nn2Cc1oc2ccc(F)cc2c(=O)c1-c1cccc(F)c1` [Example 127a, 2-((4-amino-3-(3,5-difluoro-4-hydroxyphenyl)-1H-pyrazolo[3,4-d]pyrimidin-1-yl)methyl)-6-fluoro-3-(3-fluorophenyl)-4H-chromen-4-one]?
**A.** inhibition (P110 δ/Pi3K δ): < 50%; melting point: 274 to 278 °C

**Q.** Which results are given for `CC(C)Oc1ccc(F)c(-c2nn(C(C)c3oc4ccccc4c(=O)c3-c3cccc(F)c3)c3ncnc(N)c23)c1` (stereo not shown) [Example 132, 2-(1-(4-amino-3-(2-fluoro-5-isopropoxyphenyl)-1H-pyrazolo[3,4-d]pyrimidin-1-yl)ethyl)-3-(3-fluorophenyl)-4H-chromen-4-one]?
**A.** inhibition (P110 δ/Pi3K δ): < 50%; melting point: 198 to 201 °C

**Q.** With `COc1ccc(-c2nn(C(C)c3oc4ccccc4c(=O)c3-c3cccc(F)c3)c3ncnc(N)c23)cc1Cl` (stereo not shown) [Example 157, 2-(1-(4-amino-3-(3-chloro-4-methoxyphenyl)-1H-pyrazolo[3,4-d]pyrimidin-1-yl)ethyl)-3-(3-fluorophenyl)-4H-chromen-4-one] as the compound, how does the inhibition (P110 δ/Pi3K δ) read?
**A.** < 50%

**Q.** What about the melting point of the same compound?
**A.** 246 to 249 °C

**Q.** Which inhibition (P110 δ/Pi3K δ) does the source give for `CC(c1oc2ccccc2c(=O)c1-c1cccc(F)c1)n1nc(-c2ccc(F)nc2)c2c(N)ncnc21` (stereo not shown) [Example 159, 2-(1-(4-amino-3-(6-fluoropyridin-3-yl)-1H-pyrazolo[3,4-d]pyrimidin-1-yl)ethyl)-3-(3-fluorophenyl)-4H-chromen-4-one] here?
**A.** < 50%

**Q.** And the melting point?
**A.** 203 to 206 °C

**Q.** What does the source list for `COCc1cccc(-c2nn(C(C)c3oc4ccccc4c(=O)c3-c3cccc(F)c3)c3ncnc(N)c23)c1` (stereo not shown) [Example 161, 2-(1-(4-amino-3-(3-(methoxymethyl)phenyl)-1H-pyrazolo[3,4-d]pyrimidin-1-yl)ethyl)-3-(3-fluorophenyl)-4H-chromen-4-one]?
**A.** inhibition (P110 δ/Pi3K δ): < 50%; melting point: 167 to 170 °C

**Q.** With `CC(c1oc2ccccc2c(=O)c1-c1cccc(F)c1)n1nc(-c2ccc3cc(O)ccc3c2)c2c(N)ncnc21` (stereo not shown) [Example 162, 2-(1-(4-amino-3-(6-hydroxynaphthalen-2-yl)-1H-pyrazolo[3,4-d]pyrimidin-1-yl)ethyl)-3-(3-fluorophenyl)-4H-chromen-4-one] as the compound, how does the inhibition (P110 δ/Pi3K δ) read?
**A.** 50 to 100%

**Q.** And the melting point?
**A.** 281 to 285 °C

**Q.** For `CC(C)Oc1cccc(-c2nn(C(C)c3oc4ccccc4c(=O)c3-c3cccc(F)c3)c3ncnc(N)c23)c1` (stereo not shown) [Example 163, 2-(1-(4-amino-3-(3-isopropoxyphenyl)-1H-pyrazolo[3,4-d]pyrimidin-1-yl)ethyl)-3-(3-fluorophenyl)-4H-chromen-4-one], which inhibition (P110 δ/Pi3K δ) is on record?
**A.** < 50%

**Q.** And the melting point?
**A.** 153 to 157 °C

**Q.** With `COc1ccc(NC(C)c2oc3ccc(F)cc3c(=O)c2-c2cccc(F)c2)cc1` (stereo not shown) [Example 165, 6-Fluoro-3-(3-fluorophenyl)-2-(1-(4-methoxyphenylamino)ethyl)-4H-chromen-4-one] as the compound, how does the inhibition (P110 δ/Pi3K δ) read?
**A.** < 50%

**Q.** What about the melting point of the same compound?
**A.** 152 to 156 °C

**Q.** Which inhibition (P110 δ/Pi3K δ) does the source give for `CC(c1oc2ccccc2c(=O)c1-c1cccc(F)c1)n1ccc2c(Cl)ncnc21` (stereo not shown) [Example 166, 2-(1-(4-Chloro-7H-pyrrolo[2,3-d]pyrimidin-7-yl)ethyl)-3-(3-fluorophenyl)-4H-chromen-4-one] here?
**A.** < 50%

**Q.** And the melting point?
**A.** 71 to 75 °C

**Q.** What does the source list for `CC(c1oc2ccccc2c(=O)c1-c1cccc(F)c1)n1ncc2c(Cl)ccnc21` (stereo not shown) [Example 167, 2-(1-(4-Chloro-1H-pyrazolo[3,4-b]pyridin-1-yl)ethyl)-3-(3-fluorophenyl)-4H-chromen-4-one]?
**A.** inhibition (P110 δ/Pi3K δ): < 50%; melting point: 173 to 176 °C

**Q.** With `CC(c1oc2ccccc2c(=O)c1-c1cccc(F)c1)n1ncc2c(Cl)ncnc21` (stereo not shown) [Example 168, 2-(1-(4-Chloro-1H-pyrazolo[3,4-d]pyrimidin-1-yl)ethyl)-3-(3-fluorophenyl)-4H-chromen-4-one] as the compound, how does the inhibition (P110 δ/Pi3K δ) read?
**A.** < 50%

**Q.** And the melting point?
**A.** 197 to 201 °C

**Q.** What does the source list for `CC(c1oc2ccccc2c(=O)c1-c1cccc(F)c1)n1ccc2ncnc(Cl)c21` (stereo not shown) [Example 169, 2-(1-(4-Chloro-5H-pyrrolo[3,2-d]pyrimidin-5-yl)ethyl)-3-(3-fluorophenyl)-4H-chromen-4-one]?
**A.** inhibition (P110 δ/Pi3K δ): < 50%; melting point: 166 to 168 °C

**Q.** Which inhibition (P110 δ/Pi3K δ) does the source give for `Cc1nn(C)c2cc(-c3nn(C(C)c4oc5ccccc5c(=O)c4-c4cccc(F)c4)c4ncnc(N)c34)ccc12` (stereo not shown) [Example 170, 2-(1-(4-amino-3-(1,3-dimethyl-1H-indazol-6-yl)-1H-pyrazolo[3,4-d]pyrimidin-1-yl)ethyl)-3-(3-fluorophenyl)-4H-chromen-4-one] here?
**A.** 50 to 100%

**Q.** And the melting point?
**A.** 270 to 272 °C
